{"source": "patent US10906951B2", "about": "“Modified natural killer cells and natural killer cell lines having increased cytotoxicity” (ONK THERAPEUTICS LIMITED, priority 2015, dated 2021)", "key": {"[1]": {"tested_on": "MM cells", "method": "(1) MM cell lines RPM18226 and MM1.S were grown in RPM11640 medium (Sigma, St Louis, Mo., USA) supplemented with 2 mM L-glutamine, 10 mM HEPES, 24 mM sodium bicarbonate, 0.01% of antibiotics and 10% fetal bovine serum (Sigma, St Louis, Mo., USA), in 5% CO2 atmosphere at 37° C.\n(2) MM cells were seeded in 6-well plates at 1×10^6/mL, 2 mL/well.\n(3) MM cells were then treated with different doses of Bortezomib for 24 hours."}, "[2]": {"tested_on": "MM1.S cells", "test": "Bortezomib-induced sensitization of MM1.S cells to KHYG-1 cells expressing TRAIL variant", "format": "cell-based", "details": "MM1.S pretreated with 2.5 nM for 24 hours, 1:1 co-culture 12 hours, FIG. 19", "method": "KHYG-1 cells were transfected with the TRAIL variant (TRAIL D269H/E195R), as described above in Example 6.\n(1) Bortezomib treated/untreated MM1.S cells were used as target cells. MM1.S cells were treated with 2.5 nM of Bortzeomib or vehicle (control) for 24 hours.\n(2) 6 hours after electroporation of TRAIL variant mRNA, KHYG-1 cells were then cultured with MM cells in 12-well plate. After washing, cell concentrations were adjusted to 1×10^6/mL, before mixing KHYG-1 and MM1.S cells at 1:1 ratio to culture for 12 hours.\n(3) Flow cytometric analysis of the cytotoxicity of KHYG-1 cells was carried out. The co-cultured cells were collected, washed and then stained with CD2-APC antibody (5 uL/test), AnnexinV-FITC (5 uL/test) and SYTOX-Green (5 uL/test) using AnnexinV binding buffer.\n(4) Data were further analyzed using FlowJo 7.6.2 software. CD2-negative population represents MM1.S cells. KHYG-1 cells are strongly positive for CD2. Finally, the AnnexinV-FITC and SYTOX-Green positive cells in the CD2-negative population were analyzed.\nFlow cytometric analysis of apoptosis was performed in Bortezomib-pretreated/untreated MM1.S cells co-cultured with KHYG-1 cells electroporated with/without TRAIL variant (FIG. 19)."}, "[3]": {"tested_on": "DR5", "details": "low dose, 24 hours, FIG. 18", "method": "Bortezomib was bought from Millennium Pharmaceuticals. Mouse anti-human DR5-AF647 (catalog number: 565498) was bought from BD Pharmingen. The stained cell samples were analyzed on BD FACS Canto II. (1) MM cell lines RPM18226 and MM1.S were grown in RPM11640 medium (Sigma, St Louis, Mo., USA) supplemented with 2 mM L-glutamine, 10 mM HEPES, 24 mM sodium bicarbonate, 0.01% of antibiotics and 10% fetal bovine serum (Sigma, St Louis, Mo., USA), in 5% CO2 atmosphere at 37° C. (2) MM cells were seeded in 6-well plates at 1×10^6/mL, 2 mL/well. (3) MM cells were then treated with different doses of Bortezomib for 24 hours. (4) DR5 expression in Bortezomib treated/untreated MM cells was then analyzed by flow cytometry (FIG. 18)."}, "[4]": {"tested_on": "KHYG-1 cells", "test": "KHYG-1 cell viability after CMA treatment", "format": "cell-based", "details": "100 nM CMA or vehicle, FIG. 21", "method": "(§1) (2) KHYG-1 cells (6 hours after electroporation, cultured in penicillin/streptomycin free RPMI1640 medium) were further treated with 100 nM CMA or equal volume of vehicle (DMSO) for 2 hours."}, "[5]": {"tested_on": "perforin", "test": "CMA-induced reduction of perforin expression in KHYG-1 cells, flow cytometry", "format": "cell-based, human", "details": "100 nM for 2 hours, FIG. 20", "method": "Mouse anti-human perforin-AF647 (catalog number: 563576) was bought from BD pharmingen. Concanamycin A (catalog number: SC-202111) was bought from Santa Cruz Biotechnology. The stained cell samples were analyzed using a BD FACS Canto II.\n(1) KHYG-1 cells were cultured in RPM11640 medium containing 10% FBS (fetal bovine serum), 2 mM L-glutamine, penicillin (100 U/mL)/streptomycin ([…]), and IL-2 (10 ng/mL).\nas §1\n(3) The cells were collected (1×10^6 cells/test) by centrifugation (1500 rpm×5 minutes) and the supernatant was aspirated.\n(4) The cells were fixed in 4% paraformaldehyde in PBS solution at room temperature for 15 minutes.\n(5) The cells were washed with 4 mL of FACS Buffer (PBS, 0.5-1% BSA, 0.1% sodium azide) twice.\n(6) The cells were permeabilized with 1 mL of PBS/0.1% saponin buffer for 30 minutes at room temperature.\n(7) The cells were washed with 4 mL of PBS/0.1% saponin buffer.\n(8) The cells were re-suspended in 100 uL of PBS/0.1% saponin buffer, before adding 5 uL of the antibody to each tube and incubating for 30 minutes on ice. […]\n(11) The cells were analyzed on the flow cytometer (BD FACS Canto II). […]"}, "[6]": {"target": "T1, decoy receptor DcR1 (Homo sapiens, UniProt O14798)", "T1 sequence (O14798 26-236)": "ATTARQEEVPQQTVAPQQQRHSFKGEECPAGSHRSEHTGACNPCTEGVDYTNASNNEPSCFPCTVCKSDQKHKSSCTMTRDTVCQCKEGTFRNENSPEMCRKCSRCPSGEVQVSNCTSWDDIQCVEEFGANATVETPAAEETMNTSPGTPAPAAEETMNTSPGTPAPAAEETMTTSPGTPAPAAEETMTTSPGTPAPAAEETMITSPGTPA", "details": "surface plasmon resonance; WO 2009/077857; cited from earlier work"}, "[7]": {"target": "DR4 (Homo sapiens, UniProt O00220)", "details": "surface plasmon resonance; WO 2009/077857; cited from earlier work"}, "[8]": {"tested_on": "CTLA4 gene", "test": "gRNA cleavage activity, T7E1 mismatch detection assay in K562 cells, CTLA4", "format": "cell-based, human", "details": "CRISPR/Cas9, T7E1 mismatch assay, FIG. 5", "source_text": "(§2) Two gRNA candidates were selected for each target gene and their cleavage efficacies in K562 cells determined. The sequences of the gRNA candidates are shown in Table 1 and the Protospacer Adjacent Motif (PAM) relates to the last 3 bases of the sequence. The flanking regions of the gRNA sequences on the LIR2 gene (SEQ ID NO: 1) and the CTLA4 gene (SEQ ID NO: 7) are shown in FIGS. 1 and 2, respectively.\n(§3) K562 cells were transfected with the prepared gRNA constructs (FIG. 3) and subsequently harvested for PCR amplification. The presence of GFP expression was used to report successful incorporation of the gRNA construct into the K562 cells. This confirmed expression of the Cas9 gene and therefore the ability to knock out expression of the LIR2 and CTLA4 genes.\n(§4) The cleavage activity of the gRNA constructs was determined using an in vitro mismatch detection assay. T7E1 endonuclease I recognises and cleaves non-perfectly matched DNA, allowing the parental LIR2 and CTLA4 genes to be compared to the mutated genes following CRISPR/Cas9 transfection and non-homologous end joining (NHEJ)."}, "[9]": {"tested_on": "LIR2 gene", "test": "gRNA cleavage activity, T7E1 mismatch detection assay in K562 cells, LIR2", "format": "cell-based, human", "details": "CRISPR/Cas9, T7E1 mismatch assay, FIG. 4", "source_text": "as §2, §3, §4"}}, "note": "pKd: −log10 of the molar value. Read-outs that look alike come from different tables or passages of the source.", "data": [{"molecule": "CC(C)C[C@H](NC(=O)[C@H](Cc1ccccc1)NC(=O)c1cnccn1)B(O)O", "note": "[Bortezomib]", "values": [{"measurement": "toxicity at high doses", "setting": "[1]; high doses", "value": "high toxicity resulting in most of the MM cells dying"}, {"measurement": "induction of apoptosis associated with DR5 upregulation", "setting": "[1]; low dose, data not shown", "value": "minor induction of apoptosis"}, {"measurement": "sensitivity of MM cells to KHYG-1 cells expressing the TRAIL variant", "setting": "[2]", "value": "induced sensitivity of MM cells"}, {"measurement": "DR5 expression", "setting": "[3]; MM1.S cells", "value": "increase DR5 expression"}, {"measurement": "DR5 expression", "setting": "[3]; RPMI8226 cells", "value": "increase DR5 expression"}]}, {"molecule": "C/C=C/[C@H]1O[C@@](O)([C@@H](C)[C@H](O)[C@H](C)[C@H]2OC(=O)/C(OC)=C/C(C)=C/[C@@H](C)[C@@H](O)[C@@H](CC)[C@@H](O)[C@H](C)C/C(C)=C/C=C/[C@@H]2OC)C[C@@H](O[C@H]2C[C@@H](O)[C@H](OC(N)=O)[C@@H](C)O2)[C@@H]1C", "note": "[CMA, Concanamycin A]", "values": [{"measurement": "viability of KHYG-1 cells", "setting": "[4]", "value": "no negative effects"}, {"measurement": "perforin expression level", "setting": "[5]", "value": "significantly decreased"}]}, {"molecule": "Wildtype TRAIL: wildtype TRAIL ligand; DNA sequence SEQ ID NO: 13", "values": [{"measurement": "pKd", "setting": "[6]", "value": "< 7.70"}, {"measurement": "pKd", "setting": "[7]", "value": "< 8.70"}]}, {"molecule": "g7 gRNA: CTLA4 g7 gRNA sequence CACTCACCTTTGCAGAAGACAGG (expressed or natural sequence; listed as Homo sapiens)", "values": [{"measurement": "gRNA cleavage efficiency (CTLA4 knockout)", "setting": "[8]", "value": 32, "unit": "%"}]}, {"molecule": "g9 gRNA: LIR2 g9 gRNA sequence GAGTCACAGGTGGCATTTGGCGG (expressed or natural sequence; listed as Homo sapiens)", "values": [{"measurement": "gRNA cleavage efficiency (LIR2 knockout)", "setting": "[9]", "value": 11, "unit": "%"}]}, {"molecule": "g15 gRNA: CTLA4 g15 gRNA sequence CCTTGTGCCGCTGAAATCCAAGG (expressed or natural sequence; listed as Homo sapiens)", "values": [{"measurement": "gRNA cleavage efficiency (CTLA4 knockout)", "setting": "[8]", "value": 26, "unit": "%"}]}, {"molecule": "g18 gRNA: LIR2 g18 gRNA sequence CGAATCGCAGGTGGTCGCACAGG (expressed or natural sequence; listed as Homo sapiens)", "values": [{"measurement": "gRNA cleavage efficiency (LIR2 knockout)", "setting": "[9]", "value": 10, "unit": "%"}]}]}
